Calls of active or inactive are those of the source. No cut-off for these calls is given here.
System: Liver
Assay: Unbound intrinsic clearance in human liver microsomes
Type: ADME, microsome
Details: not given
Work on CCOc1cc(=O)n(C)cc1-c1cc(NS(=O)(=O)CC)ccc1Oc1ccc(F)cc1 yielded a CL free of less than 33 mL/min/kg.
Compound CCS(=O)(=O)c1ccc2c(c1)-c1cn(C)c(=O)cc1OCCCCc1cc(Cl)ccc1O2 has a CL free of 167 mL/min/kg.
Work on CCOc1cc(=O)n(C)cc1-c1cc(NS(=O)(=O)CC)ccc1Oc1ccccc1 yielded a CL free of 67 mL/min/kg.
In the case of CCS(=O)(=O)Nc1ccc(Oc2ccc(F)cc2F)c(-c2cn(C)c(=O)cc2OC)c1, the CL free is reported as 76.7 mL/min/kg.
CCOc1cc(=O)n(C)cc1-c1cc(NS(=O)(=O)CC)ccc1Oc1ccc(C#N)cc1 gave a CL free of less than 26.7 mL/min/kg.

System: Liver
Assay: Unbound intrinsic clearance in rat liver microsomes
Type: ADME, microsome
Details: not given
CCOc1cc(=O)n(C)cc1-c1cc(NS(=O)(=O)CC)ccc1Oc1ccc(F)cc1 gave a CL free of 167 mL/min/kg.
CCS(=O)(=O)c1ccc2c(c1)-c1cn(C)c(=O)cc1OCCCCc1cc(Cl)ccc1O2 showed a CL free of 700 mL/min/kg.
CCOc1cc(=O)n(C)cc1-c1cc(NS(=O)(=O)CC)ccc1Oc1ccccc1 showed a CL free of 3000 mL/min/kg.
Compound CCS(=O)(=O)Nc1ccc(Oc2ccc(F)cc2F)c(-c2cn(C)c(=O)cc2OC)c1 has a CL free of 250 mL/min/kg.
With CCOc1cc(=O)n(C)cc1-c1cc(NS(=O)(=O)CC)ccc1Oc1ccc(C#N)cc1 the CL free was less than 43.3 mL/min/kg.

System: Mus musculus
Assay: Toxicity in SCID-Beige mouse xenografted with human OPM2 cells assessed as weight loss at 3 mg/kg, po qd for 21 days (reference value: 2%)
Type: organism-based
Details: in vivo, 504 h
CCS(=O)(=O)Nc1ccc(Oc2ccc(F)cc2F)c(-c2cn(C)c(=O)cc2OC)c1 showed an Activity of 5%.

Target: T1, Bromodomain-containing protein 4 (Homo sapiens, UniProt O60885)
Assay: Inhibition of human N-terminal His6-tagged BRD4 BD1-BD2 (57 to 550 residues) expressed in EScherichia coli BL21(DE3) after 1 hr by Alexa-647-conjugated probe based TR-FRET assay
Details: not given
In the case of CCOc1cc(=O)n(C)cc1-c1cc(NS(=O)(=O)CC)ccc1Oc1ccc(F)cc1, the Ki is reported as 0.0056 µM.
CCS(=O)(=O)c1ccc2c(c1)-c1cn(C)c(=O)cc1OCCCCc1cc(Cl)ccc1O2 showed a Ki of 0.002 µM.
CCOc1cc(=O)n(C)cc1-c1cc(NS(=O)(=O)CC)ccc1Oc1ccccc1 gave a Ki of 0.0044 µM.
Compound CCS(=O)(=O)Nc1ccc(Oc2ccc(F)cc2F)c(-c2cn(C)c(=O)cc2OC)c1 has a Ki of 0.013 µM.
CCOc1cc(=O)n(C)cc1-c1cc(NS(=O)(=O)CC)ccc1Oc1ccc(C#N)cc1 showed a Ki of 0.016 µM.

System: not listed separately
Assay: Lipophilicity, log D of the compound
Type: physicochemical
Details: octanol/water
For CCS(=O)(=O)c1ccc2c(c1)-c1cn(C)c(=O)cc1OCCCCc1cc(Cl)ccc1O2, the logD was 2.8 to 4.3.
Work on CCS(=O)(=O)Nc1ccc(Oc2ccc(F)cc2F)c(-c2cn(C)c(=O)cc2OC)c1 yielded a logD of 2.8 to 4.3.

System: Plasma
Assay: Free plasma concentration required to reach in vitro EC50 for human OPM2 cells in SCID-Beige mouse xenografted with human OPM2 cells at 1 to 3 mg/kg, po
Details: not given
With CCS(=O)(=O)Nc1ccc(Oc2ccc(F)cc2F)c(-c2cn(C)c(=O)cc2OC)c1 the “Cp(f)” value was 0.16 µM.

System: Mus musculus
Assay: Unbound AUC in mouse at 1 mg/kg, po
Type: ADME, organism-based
Details: in vivo
Compound CCS(=O)(=O)c1ccc2c(c1)-c1cn(C)c(=O)cc1OCCCCc1cc(Cl)ccc1O2 has a fAUC of 41 ng·h/mL.

System: not listed separately
Assay: Oral bioavailability in mouse at 10 mg/kg
Type: ADME, organism-based
Details: in vivo
Work on CCS(=O)(=O)Nc1ccc(Oc2ccc(F)cc2F)c(-c2cn(C)c(=O)cc2OC)c1 yielded a bioavailability of 63%.

System: not listed separately
Assay: Oral bioavailability in mouse at 1 mg/kg
Type: ADME, organism-based
Details: in vivo
For CCS(=O)(=O)c1ccc2c(c1)-c1cn(C)c(=O)cc1OCCCCc1cc(Cl)ccc1O2, the bioavailability was 41%.

System: OPM-2
Assay: Antitumor activity against human OPM2 cells xenografted in SCID-Beige mouse assessed as tumor growth inhibition at 3 mg/kg, po qd for 21 days relative to control
Type: functional
Details: OPM-2, po, 504 h, read-out: TGI
For CCS(=O)(=O)Nc1ccc(Oc2ccc(F)cc2F)c(-c2cn(C)c(=O)cc2OC)c1, the inhibition in vivo at 3 mg/kg was 73%.

System: Mus musculus
Assay: Toxicity in SCID-Beige mouse xenografted with human OPM2 cells assessed as weight loss at 1 mg/kg, po qd for 21 days (reference value: 2%)
Type: organism-based
Details: in vivo, 504 h
CCS(=O)(=O)Nc1ccc(Oc2ccc(F)cc2F)c(-c2cn(C)c(=O)cc2OC)c1 showed an Activity of 6%.

System: Mus musculus
Assay: Fraction absorbed in portal vein of mouse at 1 mg/kg, iv or 1 mg/kg, po
Type: ADME, organism-based
Details: in vivo
Compound CCS(=O)(=O)c1ccc2c(c1)-c1cn(C)c(=O)cc1OCCCCc1cc(Cl)ccc1O2 has a FaFg of 0.44.

Target: T1, Bromodomain-containing protein 4
Assay: Inhibition of BRD4 in human NCI-H1299 cells after 24 hrs by Bright-Glo luciferase reporter gene assay
Type: cell-based
Details: not given
In the case of CCOc1cc(=O)n(C)cc1-c1cc(NS(=O)(=O)CC)ccc1Oc1ccc(F)cc1, the EC50 is reported as 0.069 µM.
CCS(=O)(=O)c1ccc2c(c1)-c1cn(C)c(=O)cc1OCCCCc1cc(Cl)ccc1O2 gave an EC50 of 0.016 µM.
Work on CCOc1cc(=O)n(C)cc1-c1cc(NS(=O)(=O)CC)ccc1Oc1ccccc1 yielded an EC50 of 0.039 µM.
Work on CCS(=O)(=O)Nc1ccc(Oc2ccc(F)cc2F)c(-c2cn(C)c(=O)cc2OC)c1 yielded an EC50 of 0.056 µM.
With CCOc1cc(=O)n(C)cc1-c1cc(NS(=O)(=O)CC)ccc1Oc1ccc(C#N)cc1 the EC50 was 0.055 µM.

System: Mus musculus
Assay: Dose normalized fAUC in mouse at 3 mg/kg, iv or 10 mg/kg, po
Type: ADME, organism-based
Details: in vivo
CCS(=O)(=O)Nc1ccc(Oc2ccc(F)cc2F)c(-c2cn(C)c(=O)cc2OC)c1 showed a fAUC/dose of 0.081 µg·h/mL per mg/kg.

System: OPM-2
Assay: Antiproliferative activity against human OPM2 cells
Type: functional, cell-based
Details: not given
CCS(=O)(=O)Nc1ccc(Oc2ccc(F)cc2F)c(-c2cn(C)c(=O)cc2OC)c1 gave an EC50 of 0.023 µM.

System: Mus musculus
Assay: Unbound clearance in mouse at 1 mg/kg, iv or 1 mg/kg, po
Type: ADME, organism-based
Details: in vivo
Compound CCS(=O)(=O)c1ccc2c(c1)-c1cn(C)c(=O)cc1OCCCCc1cc(Cl)ccc1O2 has a CL free of 167 mL/min/kg.

System: Liver
Assay: Unbound intrinsic clearance in mouse liver microsomes
Type: ADME, microsome
Details: not given
In the case of CCOc1cc(=O)n(C)cc1-c1cc(NS(=O)(=O)CC)ccc1Oc1ccc(F)cc1, the CL free is reported as less than 98.3 mL/min/kg.
For CCS(=O)(=O)c1ccc2c(c1)-c1cn(C)c(=O)cc1OCCCCc1cc(Cl)ccc1O2, the CL free was 883 mL/min/kg.
CCOc1cc(=O)n(C)cc1-c1cc(NS(=O)(=O)CC)ccc1Oc1ccccc1 showed a CL free of 91.7 mL/min/kg.
CCS(=O)(=O)Nc1ccc(Oc2ccc(F)cc2F)c(-c2cn(C)c(=O)cc2OC)c1 gave a CL free of 267 mL/min/kg.
CCOc1cc(=O)n(C)cc1-c1cc(NS(=O)(=O)CC)ccc1Oc1ccc(C#N)cc1 showed a CL free of less than 76.7 mL/min/kg.

System: Mus musculus
Assay: Unbound plasma clearance in mouse at 3 mg/kg, iv or 10 mg/kg, po
Type: ADME, organism-based
Details: in vivo
Compound CCS(=O)(=O)Nc1ccc(Oc2ccc(F)cc2F)c(-c2cn(C)c(=O)cc2OC)c1 has a CL free of 183 mL/min/kg.

System: MX1
Assay: Antiproliferative activity against human MX1 cells after 72 hrs by Cell Titer Glo assay
Type: functional, cell-based
Details: MX1, 72 h
For CCOc1cc(=O)n(C)cc1-c1cc(NS(=O)(=O)CC)ccc1Oc1ccc(F)cc1, the EC50 was 0.016 µM.
In the case of CCS(=O)(=O)c1ccc2c(c1)-c1cn(C)c(=O)cc1OCCCCc1cc(Cl)ccc1O2, the EC50 is reported as 0.013 µM.
For CCOc1cc(=O)n(C)cc1-c1cc(NS(=O)(=O)CC)ccc1Oc1ccccc1, the EC50 was 0.0047 µM.
For CCS(=O)(=O)Nc1ccc(Oc2ccc(F)cc2F)c(-c2cn(C)c(=O)cc2OC)c1, the EC50 was 0.047 µM.
Compound CCOc1cc(=O)n(C)cc1-c1cc(NS(=O)(=O)CC)ccc1Oc1ccc(C#N)cc1 has an EC50 of 0.053 µM.

System: not listed separately
Assay: Fraction unbound in SCID-Beige mouse plasma xenografted with human OPM2 cells at 1 to 3 mg/kg, po
Type: ADME, organism-based
Details: not given
For CCS(=O)(=O)Nc1ccc(Oc2ccc(F)cc2F)c(-c2cn(C)c(=O)cc2OC)c1, the fraction unbound was 0.14.

System: Mus musculus
Assay: Fraction absorbed in portal vein of mouse at 3 mg/kg, iv or 10 mg/kg, po
Type: ADME, organism-based
Details: in vivo
With CCS(=O)(=O)Nc1ccc(Oc2ccc(F)cc2F)c(-c2cn(C)c(=O)cc2OC)c1 the FaFg was 0.89.

System: OPM-2
Assay: Antitumor activity against human OPM2 cells xenografted in SCID-Beige mouse assessed as tumor growth inhibition at 1 mg/kg, po qd for 21 days relative to control
Type: functional
Details: OPM-2, po, 504 h, read-out: TGI
With CCS(=O)(=O)Nc1ccc(Oc2ccc(F)cc2F)c(-c2cn(C)c(=O)cc2OC)c1 the inhibition in vivo at 1 mg/kg was 66%.

System: Mus musculus
Assay: Time required to reach in vitro EC50 for human OPM2 cells in SCID-Beige mouse xenografted with human OPM2 cells at 3 mg/kg, po
Details: not given
Compound CCS(=O)(=O)Nc1ccc(Oc2ccc(F)cc2F)c(-c2cn(C)c(=O)cc2OC)c1 has a Time of 6.5 h.

System: not listed separately
Assay: Fraction unbound in mouse plasma at 1 uM after 4 hrs by LC-MS/MS analysis
Type: ADME, cell-free
Details: not given
Compound CCS(=O)(=O)c1ccc2c(c1)-c1cn(C)c(=O)cc1OCCCCc1cc(Cl)ccc1O2 has a fraction unbound at 4 h, 1 µM of 0.04.
With CCS(=O)(=O)Nc1ccc(Oc2ccc(F)cc2F)c(-c2cn(C)c(=O)cc2OC)c1 the fraction unbound at 4 h, 1 µM was 0.14.

System: not listed separately
Assay: Permeability of the compound by PAMPA
Type: physicochemical
Details: read-out: permeability
In the case of CCS(=O)(=O)c1ccc2c(c1)-c1cn(C)c(=O)cc1OCCCCc1cc(Cl)ccc1O2, the Papp is reported as 7.6 ×10⁻⁶ cm/s.

System: OPM-2
Assay: Antitumor activity against human OPM2 cells xenografted in SCID-Beige mouse assessed as tumor growth inhibition at 1 to 3 mg/kg, po qd measured after 21 days
Type: functional, organism-based
Details: not given
With CCS(=O)(=O)Nc1ccc(Oc2ccc(F)cc2F)c(-c2cn(C)c(=O)cc2OC)c1 the TGI was “inactive”.

Reference: ChEMBL document CHEMBL4049425, “Fragment-Based, Structure-Enabled Discovery of Novel Pyridones and Pyridone Macrocycles as Potent Bromodomain and Extra-Terminal Domain (BET) Family Bromodomain Inhibitors” (J Med Chem, 2017)
